Holding throughout (experiment): Pre-emergence soil-applied mixtures, greenhouse
For assay [1], the system named is ABUTH (Abutilon theophrasti, velvetleaf). Type of assay: in vivo, Abutilon theophrasti Medik. From the text:
(§1) Seeds or nutlets of the desired test plant species were planted in a soil matrix prepared by mixing a loam soil (32 percent silt, 23 percent clay, and 45 percent sand, with a pH of about 6.5 and an organic matter content of about 1.9 percent) and calcareous grit in an 80 to 20 ratio. The soil matrix was contained in plastic pots with a volume of 1 quart and a surface area of 83.6 square centimeters (cm^2).
(§2) Treatments consisted of the benzyl ester of 4-amino-3-chloro-5-fluoro-6-(4-chloro-2-fluoro-3-methoxy-phenyl)pyridine-2-carboxylic acid (compound A) formulated as an SC (suspension concentrate) and various herbicidal components alone and in combination. Forms of compound A were applied on an acid equivalent basis.
(§3) Other herbicidal components were applied on an acid equivalent or active ingredient basis and included the PSII-inhibiting herbicides, atrazine formulated as Atrazine® 90WDG, metribuzin formulated as Metribuzin 75DF, simazine formulated as Princep Caliber 90, tebuthiuron formulated as Spike 80DF, cyanazine (technical grade material), hexazinone (technical grade material), linuron (technical grade material), terbuthylazine (technical grade material), and diuron formulated as Diuron 4L.
(§4) Treatment requirements were calculated based upon the rates being tested, the concentration of active ingredient or acid equivalent in the formulation, and a 12 mL application volume at a rate of 187 L/ha.
(§5) For treatments comprised of formulated compounds, measured amounts of compounds were placed individually in 25 mL glass vials and diluted in a volume of 1.25% (v/v) Agri-Dex® crop oil concentrate (COC) to obtain 12× stock solutions. […] Application solutions were prepared by adding an appropriate amount of each stock solution (e.g., 1 mL) and diluted to the appropriate final concentrations with the addition of 10 mL of an aqueous mixture of 1.25% (v/v) COC so that the final spray solutions contained 1.25% (v/v) COC.
(§6) For treatments comprised of technical compounds, weighed amounts can be placed individually in 25 mL glass vials and dissolved in a volume of 97:3 (v/v) acetone/DMSO to obtain 12× stock solutions. […] Application solutions can be prepared by adding an appropriate amount of each stock solution (e.g., 1 mL) and diluted to the appropriate final concentrations with the addition of 10 mL of an aqueous mixture of 1.5% (v/v) COC so that the final spray solutions contain 1.25% (v/v) COC. When technical materials are used, the concentrated stock solutions can be added to the spray solutions so that the final acetone and DMSO concentrations of the application solutions are 16.2% and 0.5%, respectively.
For treatments comprised of formulated and technical compounds, weighed amounts of the technical materials can be placed individually in 25 mL glass vials and dissolved in a volume of 97:3 (v/v) acetone/DMSO to obtain 12× stock solutions, and measured amounts of the formulated compounds can be placed individually in 25 mL glass vials and diluted in a volume of 1.5% (v/v) COC or water to obtain 12× stock solutions. […] Application solutions can be prepared by adding an appropriate amount of each stock solution (e.g., 1 mL) and diluted to the appropriate final concentrations with the addition of an appropriate amount of an aqueous mixture of 1.5% (v/v) COC so that the final spray solutions contain 1.25% (v/v) COC. […]

The test system of assay [2] is BRAPP (Brachiaria platyphylla, broadleaf signalgrass). Type of assay: in vivo, Brachiaria platyphylla (Groseb.) Nash. To be noted: 28 DAA.
From the text: as §1, §2, §3, §4, §5, §6
(§7) For treatments comprised of formulated and technical compounds, weighed amounts of the technical materials can be placed individually in 25 mL glass vials and dissolved in a volume of 97:3 (v/v) acetone/DMSO to obtain 12× stock solutions, and measured amounts of the formulated compounds can be placed individually in 25 mL glass vials and diluted in a volume of 1.5% (v/v) COC or water to obtain 12× stock solutions. […] Application solutions can be prepared by adding an appropriate amount of each stock solution (e.g., 1 mL) and diluted to the appropriate final concentrations with the addition of an appropriate amount of an aqueous mixture of 1.5% (v/v) COC so that the final spray solutions contain 1.25% (v/v) COC. As required, additional water and/or 97:3 (v/v) acetone/DMSO can be added to individual application solutions so that the final acetone and DMSO concentrations of the application solutions being compared are 8.1% and 0.25%, respectively.
(§8) All stock solutions and applications solutions were visually inspected for compound compatibility prior to application. Spray solutions were applied to the soil with an overhead Mandel track sprayer equipped with a 8002E nozzles calibrated to deliver 187 L/ha over an application area of 0.503 m^2 at a spray height of 18 inches (46 cm) above average pot height. […]

Assay [3] has as its system ECHCG (Echinochloa crus-galli, barnyardgrass). The format is in vivo, Echinochloa crus-galli (L.) P. Beauv.
From the text: as §1, §2, §3, §4, §5
For treatments comprised of technical compounds, weighed amounts can be placed individually in 25 mL glass vials and dissolved in a volume of 97:3 (v/v) acetone/DMSO to obtain 12× stock solutions. […]
(§9) For treatments comprised of formulated and technical compounds, weighed amounts of the technical materials can be placed individually in 25 mL glass vials and dissolved in a volume of 97:3 (v/v) acetone/DMSO to obtain 12× stock solutions, and measured amounts of the formulated compounds can be placed individually in 25 mL glass vials and diluted in a volume of 1.5% (v/v) COC or water to obtain 12× stock solutions. […]

The test system of assay [4] is ECHCO (Echinochloa colonum, junglerice). Type of assay: in vivo, Echinochloa colonum (L.) Link. To be noted: Diuron 280 g ai/ha.
From the text: as §1, §2, §3, §4
(§10) For treatments comprised of formulated compounds, measured amounts of compounds were placed individually in 25 mL glass vials and diluted in a volume of 1.25% (v/v) Agri-Dex® crop oil concentrate (COC) to obtain 12× stock solutions. […]
as §9

Assay [5] deals with SETVI (Setaria viridis, green foxtail). The format is in vivo, Setaria viridis (L.) Beauv. To be noted: Diuron 280 g ai/ha.
From the text: as §1, §2, §3, §4, §10, §9

Assay [6] deals with SETFA (Setaria faberi, giant foxtail). Type of assay: in vivo, Setaria faberi Herrm. As to conditions: Diuron 280 g ai/ha; 29 DAA.
From the text: as §1, §2, §3, §4, §5, §6, §7, §8

On to `CN(C)C(=O)Nc1ccc(Cl)c(Cl)c1` [Diuron, N′-(3,4-dichlorophenyl)-N,N-dimethylurea, reference compound], for which the “Visual Weed Control (%)-29 DAA ABUTH Obs” value in assay [1] (Diuron 280 g ai/ha) is reported as 30%; in assay [1] (Diuron 560 g ai/ha) it was 70%; in assay [1] (Diuron 1120 g ai/ha), 90%. Besides, the “Visual Weed Control (%)-28 DAA BRAPP Obs” value in assay [2] (Diuron 280 g ai/ha) amounted to 0%; in assay [2] (Diuron 560 g ai/ha) it was 35%. Also, the results for the “Visual Weed Control (%)-28 DAA ECHCG Obs” value in assay [3] (Diuron 280 g ai/ha) and in assay [3] (Diuron 560 g ai/ha) were 25% and 65%, respectively. The “Visual Weed Control (%)-29 DAA ECHCO Obs” value in assay [4] turned out to be 15%. In addition, in assay [5], the “Visual Weed Control (%)-29 DAA SETVI Obs” value worked out at 0%. In addition, in assay [6], the “Visual Weed Control (%)-29 DAA SETFA Obs” value is given as 5%.

Values taken from patent US8912121B2, “Herbicidal compositions comprising 4-amino-3-chloro-5-fluoro-6-(4-chloro-2-fluoro-3-methoxyphenyl)pyridine-2-carboxylic acid or a derivative thereof and certain PS II inhibitors” (Dow Agrosciences LLC, priority 2012, dated 2014).
